In patent publication US5760176A, “Hydrophobic attachment site for adhesion peptides” (La Jolla Cancer Research Foundation, priority 1996, dated 1998):
Where two headings read alike, the source gives them in different places. Non-standard residues stand in square brackets, D forms with d. Residues, ends and D or L forms follow the SMILES beside them. Sar = CNCC(=O)O

System: MG-63 cells
[1] = Table III, phenylalanine as a hydrophobic domain, 100 μg/well

Experimental: The peptides were solubilized in 70% EtOH at a starting concentration of 1 mg/ml. […] The remaining wells contained 100 μl of 70% EtOH. Taking 100 μl from the 1 mg/ml solution in the first two wells, a serial dilution was performed out to 0.15 μg/well for each peptide. The plates were allowed to dry overnight at 37° C. in the presence of a desiccator.
The following day the peptide coated plates were used in a standard adhesion assay as described in Example III, using MG-63 cells, an osteosarcoma cell line available from American Type Tissue Culture.
The plates were washed lX using PBS, (151 mM NaCl/10 mM sodium phosphate, pH 7.4). The plates were incubated with DMEM (0.1 ml/well) containing bovine serum albumin (BSA 2.5 mg/ml; Sigma Chemical Co., St. Louis, Mo.) for one hour. Two×10^5 cells/ml (MG-63) were suspended in DMEM, and BSA (2.5 mg/ml). 100 μl of cell suspension was added per well and the plates are incubated at 37° C. in 7.5% CO2 /92.5% air for one hour. Afterwards, the plate was washed once in PBS. Attached cells were then fixed with 3% paraformaldehyde and stained overnight with 1% toluidine blue in 10% formaldehyde. The following day, the excess stain was removed and the plates were washed with H2 O; 100 μl of a 1% sodium dodecyl sulfate (SDS) solution was added to each well. The level of cell attachment was then measured, using a kinetic microplate reader (Molecular Devices,) by assessing the optical density at 630 nm.

| Compound | percentage of maximum binding (cell attachment) [1] | percentage of maximum binding (cell attachment) (Table III, 1.5 μg/well) | percentage of maximum binding (cell attachment) (Table III, 3 μg/well) | percentage of maximum binding (cell attachment) (Table III, 6 μg/well) | percentage of maximum binding (cell attachment) (Table III, 12 μg/well) | percentage of maximum binding (cell attachment) (Table III, 25 μg/well) | percentage of maximum binding (cell attachment) (Table III, 50 μg/well) | percentage of maximum binding (cell attachment) | other results |
| --- | --- | --- | --- | --- | --- | --- | --- | --- | --- |
| nMeG(dR)GDSPASSKRF4 RNH2 [nMeGRGDSPASSKRF4 RNH2] | 70 percentage of maximum binding | 34 percentage of maximum binding | 50 percentage of maximum binding | 56 percentage of maximum binding | 59 percentage of maximum binding | 60 percentage of maximum binding | 73 percentage of maximum binding |  |  |
| CNCC(=O)N[C@H](CCCNC(=N)N)C(=O)NCC(=O)N[C@@H](CC(=O)O)C(=O)N[C@@H](CO)C(=O)N1CCC[C@H]1C(=O)N[C@@H](C)C(=O)N[C@@H](CO)C(=O)N[C@@H](CO)C(=O)N[C@@H](CCCCN)C(=O)N[C@@H](CO)C(=O)N[C@@H](CO)C(=O)N[C@@H](CO)C(=O)N[C@@H](CO)C(=O)N[C@@H](CCCNC(=N)N)C(=O)N[C@@H](CC(C)C)C(=O)N[C@@H](CC(C)C)C(=O)N[C@@H](CC(C)C)C(=O)N[C@@H](CC(C)C)C(=O)N[C@@H](CC(C)C)C(=O)N[C@@H](CC(C)C)C(=O)N[C@@H](CCCNC(=N)N)C(N)=O [nMeG(dR)GDSPASSKS4 RL6 RNH2] (H-[Sar][dR]GDSPASSKSSSSRLLLLLLR-NH2) |  |  |  |  |  |  |  | 76 percentage of maximum binding |  |
| CCCCCCCCCCCCCC(=O)O [Myristic acid] |  |  |  |  |  |  |  |  | percentage of maximum binding (cell attachment) (Table IV, myristic acid as hydrophobic carrier, 100 μg/well): 33 percentage of maximum binding; percentage of maximum binding (cell attachment) (Table IV, 6 μg/well): 45 percentage of maximum binding; percentage of maximum binding (cell attachment) (Table IV, 12 μg/well): 75 percentage of maximum binding; percentage of maximum binding (cell attachment) (Table IV, 25 μg/well): 50 percentage of maximum binding; percentage of maximum binding (cell attachment) (Table IV, 50 μg/well): 30 percentage of maximum binding |
| nMEGRGDSPASSKRF6 RNH2 | 70 percentage of maximum binding | 50 percentage of maximum binding | 54 percentage of maximum binding | 57 percentage of maximum binding | 52 percentage of maximum binding | 56 percentage of maximum binding | 75 percentage of maximum binding |  |  |
| CNCC(=O)N[C@H](CCCNC(=N)N)C(=O)NCC(=O)N[C@@H](CC(=O)O)C(=O)N[C@@H](CO)C(=O)N1CCC[C@H]1C(=O)N[C@@H](C)C(=O)N[C@@H](CO)C(=O)N[C@@H](CO)C(=O)N[C@@H](CCCCN)C(=O)N[C@@H](CO)C(=O)N[C@@H](CO)C(=O)N[C@@H](CCCNC(=N)N)C(=O)N[C@@H](CC(C)C)C(=O)N[C@@H](CC(C)C)C(=O)N[C@@H](CC(C)C)C(=O)N[C@@H](CC(C)C)C(=O)N[C@@H](CC(C)C)C(=O)N[C@@H](CC(C)C)C(=O)N[C@@H](CCCNC(=N)N)C(N)=O [nMeG(dR)GDSPASSKS2 RL6 RNH2] (H-[Sar][dR]GDSPASSKSSRLLLLLLR-NH2) |  |  |  |  |  |  |  | 38 percentage of maximum binding |  |
| CNCC(=O)N[C@H](CCCNC(=N)N)C(=O)NCC(=O)N[C@@H](CC(=O)O)C(=O)N[C@@H](CO)C(=O)N1CCC[C@H]1C(=O)N[C@@H](C)C(=O)N[C@@H](CO)C(=O)N[C@@H](CO)C(=O)N[C@@H](CCCCN)C(=O)N[C@@H](CC(C)C)C(=O)N[C@@H](CC(C)C)C(=O)N[C@@H](CC(C)C)C(=O)N[C@@H](CC(C)C)C(=O)N[C@@H](CC(C)C)C(=O)N[C@@H](CC(C)C)C(N)=O [nMeG(dR)GDSPASSKL6 NH2] (H-[Sar][dR]GDSPASSKLLLLLL-NH2) |  |  |  |  |  |  |  | 9 percentage of maximum binding |  |
| XG(R)GDSPASSKL4 NH2 [Peptide L4] |  |  |  |  |  |  |  |  | percentage of maximum binding (cell attachment) (Table II, 1.5 μg/well peptide, MG-63 cells): 1 percentage of maximum binding; percentage of maximum binding (cell attachment) (Table II, 3 μg/well peptide, MG-63 cells): 1 percentage of maximum binding; percentage of maximum binding (cell attachment) (Table II, 6 μg/well peptide, MG-63 cells): 2 percentage of maximum binding; percentage of maximum binding (cell attachment) (Table II, 12 μg/well peptide, MG-63 cells): 10 percentage of maximum binding; percentage of maximum binding (cell attachment) (Table II, 25 μg/well peptide, MG-63 cells): 16 percentage of maximum binding; percentage of maximum binding (cell attachment) (Table II, 50 μg/well peptide, MG-63 cells): 12 percentage of maximum binding; percentage of maximum binding (cell attachment) (Table II, 100 μg/well peptide dried onto well, MG-63 cells): 44 percentage of maximum binding; promotion of cell attachment (result in words) (peptide coated 100 to 1.5 μg/well, MG-63 cells, summary of Table II): promoted marginal cell attachment only at the highest concentration of 100 μg/well |
| nMeGRGDSPASSKRL5 RNH2 | 72 percentage of maximum binding | 34 percentage of maximum binding | 44 percentage of maximum binding | 60 percentage of maximum binding | 66 percentage of maximum binding | 58 percentage of maximum binding | 68 percentage of maximum binding |  |  |
| nMeGRGDSPASSKS3 RF6 RNH2 | 69 percentage of maximum binding | 70 percentage of maximum binding | 70 percentage of maximum binding | 65 percentage of maximum binding | 66 percentage of maximum binding | 60 percentage of maximum binding | 69 percentage of maximum binding |  |  |
